Data taken from patent US20110105434A1, “2-AMINO PURINE DERIVATIVES AND THEIR USE AS ANTI-HERPETIC AGENTS” (priority 2007, published 2011).

How the values were obtained:
[1] = test system: patient with nutcracker esophagus; assay: nutcracker esophagus spasms; type: in vivo, human; settings: 300 mg/kg per day
Description: Another condition experienced by the patient related to muscle spasms referred to as the “nutcracker esophagus.” This condition involves very painful spasms of the esophagus caused by food touching the hypersensitive “trigger points” inside the esophagus. These spasms can persist from minutes to hours. […] The condition recurs within a few hours when the drug is stopped.

[2] = test system: patient with irritable bowel syndrome; assay: irritable bowel syndrome signs or symptoms; type: in vivo, human
Description: This example sets forth the treatment of a patient with signs or symptoms of disease associated with reduced blood flow to an organ or tissue (correlated with hypertonicity of the associated blood vessels) using high doses of famciclovir, a compound of Formula (II) where B is H and each of R1 and R2 is CH3C(O)—, at a level and under conditions as explained below.
A patient weighing about 100 kg having multiple signs or symptoms of autoimmune disease had been ingesting famciclovir for several years at about 10 g per day taken 4 times daily during a 24 hour period. While the subject's condition was tolerable, they were in a regular state of pain in the joints and had other signs or symptoms discussed below.
The patient also presented with irritable bowel syndrome (IBS) signs or symptoms, such as severe distention, cramps and pain spasms. After increasing intake of famciclovir to a maintenance level of 300 mg/kg per day, the patient experienced a dramatic improvement. […] The distended waist circumference was reduced from 44 inches to 38 inches over a period of days, and pain was about 90% relieved. Since the patient experienced no weight loss, the reduction in distention was due to the relief of bowel spasms.

[3] = body pH of 7.4; cited from earlier work
patient lung function = assay: lung function by blood oxygenation (pulse oximetry); type: in vivo, human
Description: Still another example of improvement that the inventor has discovered is improved pulmonary function. […] The pulmonary function was increased to 96% SATS by using the very high dose treatment of this invention. […] Thus the method of this invention can treat and reverse pulmonary hypertension and pulmonary fibrosis. […] Improvements of this kind in this range with this kind of patient (no known existing lung disease) are unusual. Thus, another aspect of this invention is a method to improve pulmonary function by administering a compound in accordance with the teachings herein. Treatments which cause similar improvements in patients with lung disease are direct acting relaxants upon the muscles of the vessels and the airways of the lung. The compounds of this invention have no such direct effect, and can only relax these critical lung muscles by suppressing the herpetically-induced “hypertonus” or resting tone of these muscles which was elevated above normal tone by the herpetic activity in the cells of the sympathetic chain which control these muscles.
An improvement in lung function was seen, possibly via relief of pulmonary hypertension, while taking famciclovir at 300 mg/kg per day. […] The patient's oxyhemoglobin increased from 92% to 96%. This small improvement is significant for this parameter in the 90%-100% range. […]

[4] = approved oral dose range; cited from earlier work
[5] = test system: patients with autoimmune disease; assay: pain and signs or symptoms of autoimmune disease in general; type: in vivo, human; settings: very high levels
Experimental: After the drugs take effect, usually in less than an hour, the pain is at least 50% reduced or disappears. This is a particularly surprising and useful discovery.
In the past, it was observed, that a patient that stopped increasing the dosage of the anti-herpes drugs at the threshold of pain rarely achieves the relief of the autoimmune signs or symptoms. Patients who exceed the pain threshold and take over 20 g per day (over 200 mg/kg/day) start experiencing a reduction in autoimmune symptoms for prolonged periods of time. The pain in such patients eventually disappears. Patients who take even higher doses, 30 g per day for a 100 kg subject (300 mg/kg) and higher, experience a continuous relief of at least 90% of all of their autoimmune signs or symptoms, including pain, as long as they continue taking the drug.
Most importantly, the present invention teaches alleviation of pain associated with autoimmune disease. The prior art, including the '114 patent, teaches to use pain as guide when adjusting the maximum dose of the anti-herpes drug. However, it is now disclosed that a patient should tolerate the pain during the initial period of taking extremely high doses of anti-herpes drugs. After the drugs take effect, usually in less than an hour, the pain is at least 50% reduced or disappears. […]

[6] = test system: patient with aseptic meningitis; assay: treatment of aseptic meningioencephalitis / aseptic meningitis; type: in vivo, human
Description: The inventor thought that the cause of the AME was the patient's herpes infection that had spread internally to the brain and meninges. […] Because the product inserts for the anti-viral products on the market ([…]®) all warned against using increased doses of the product because of the fear of further renal damage, there was reason not to use increased doses beyond those of '114. […] A patient weighing about 100 kg having multiple signs or symptoms of autoimmune disease had been ingesting famciclovir for several years at about 10 g per day taken 4 times daily during a 24 hour period. While the subject's condition was tolerable, they were in a regular state of pain in the joints and had other signs or symptoms discussed below. They experienced significant headache pain, which was diagnosed as aseptic meningitis, which was discovered to be treatable initially using 340 mg of famciclovir per kg body weight. […] The inflammation and pain are therefore thought to be caused by the immune attack on the infected tissues. Within hours of taking the high doses of famciclovir, the patient experienced at least 60% relief of the extremely painful and debilitating symptoms of meningitis. […] The Shalabi, et al. report is discouraging. According to the authors, the disease is self-resolving. Without a double-blind study, it was not possible to detect the contribution of acyclovir to the recovery.

[7] = test system: patient with fibromyalgia; assay: fibromyalgia pain; type: in vivo, human; settings: 300 mg/kg per day
Experimental: Yet another effect was alleviation of fibromyalgia: The pain was reduced by about 95% at 300 mg/kg of famciclovir per day.

Structure (SMILES): CC(=O)OCC(CCn1cnc2cnc(N)nc21)COC(C)=O [famciclovir, 2-amino-9-(4-acetoxy-3-acetoxymethylbut-1-yl)purine]
- nutcracker esophagus condition [1]: completely relieved and prevented
- IBS pain relieved ([2]; 300 mg/kg per day): about 90%
- distended waist circumference ([2]; 300 mg/kg per day, over a period of days, reduced from 44 inches): 38 inches
- IBS pain spasms ([2]; maintenance level of 300 mg/kg per day): dramatically decreased
- water solubility compared with other representative compounds such as acyclovir [3]: more water soluble
- pulse O2 (oxyhemoglobin) (patient lung function; after six months of 300 mg/kg per day, from 92%): 96%
- pulse O2 (oxyhemoglobin) (patient lung function; several years taking about 100 mg/kg): 92%
- absorption (dose linearity) [4]: linear
- pain associated with autoimmune disease [5]: immediate relief
- unremitting severe symptoms of aseptic meningitis ([6]; 340 mg/kg per day, maintained at 300 mg/kg/day): quickly dispersed
- relief of symptoms of meningitis ([6]; 340 mg/kg, within hours of taking): at least 60%
- treating the AME ([6]; maximum dose of 120 mg/kg body weight as taught in '114): ineffective
- acute pain and the AME ([6]; more than 250, e.g. 340 to 400 mg/kg/day): completely stopped
- fibromyalgia pain reduced [7]: about 95%
